Measured values published in patent US9657025B2, “Pyrazolopyrimidine compounds” (University Health Network, priority 2013, dated 2017).
Structures can show the parent of a compound that is named as a salt.

Test system: Ovarian TICs (Ovarian 2393A)
Experiment: Ovarian tumor-initiating cell growth inhibition, Alamar Blue assay
Format: cell-based
Conditions: 144 h, read-out: Tumor Initiating Cell GI50 Range Ovarian 2393A
From the text: Materials and Methods: Non-tissue or tissure cultured treated T-75 flask and 96-well plates were purchased from VWR. Vitamin B-27 supplement, MEM NEAA (minimum essential medium non-essential amino acids), sodium pyruvate, L-glutamine, N2 supplement, penicillin-streptomycin and fungizone/amphotericin B were obtained from Invitrogen. Lipid mixture, heparin and EGF were purchased from Sigma; bFGF from BD Biosciences. Tumor Initiating Cells (TICs) from colon were routinely maintained using non-tissue cultured treated T-75 flasks in DMEM:F12 medium containing 0.2×B-27 supplement, 4 ug/ml heparin, 1×MEM NEAA, 1×sodium pyruvate, 1 mM glutamine, 10 pg/ul bFGF, 20 pg/ul EGF, 1× N2 supplement, lipid mixture, penicillin-streptomycin and fungizone/amphotericin B. Ovarian TICs were routinely maintained using tissue cultured treated T-75 flasks in DMEM:F12 medium containing 1×B-27 supplement, 4 ug/ml heparin, 20 pg/ul bFGF, 20 pg/ul EGF and penicillin-streptomycin. Assay Protocol: Compounds described herein were dissolved in DMSO and further diluted in cell culture medium for GI50 determination. […] Cell viability was assessed by Alamar Blue assay: 10 ul of Alamar Blue was added into each well. After 4 hours incubation at 37° C., fluorescence was recorded at excitation 544 and emission 590. GI50 (Growth inhibition) was calculated using GraphPad Prism 4.0 software. […]

For `Cc1cc(-c2cnn3c(NC[C@H]4C[C@@](C)(O)C4)cc(Oc4cccnc4)nc23)ccc1C(=O)NC1CC1` [Example A4, N-cyclopropyl-4-(7-((((1s,3s)-3-hydroxy-3-methylcyclobutyl)methyl)amino-5-(pyridin-3-yloxy)pyrazolo[1,5-a]pyrimidin-3-yl)-2-methylbenzamide hydrochloride and itsfreebase], the GI50 was < 100 nM.
